Several values for one entry are separate records, joined by “and”; a condition that tells them apart may be missing. Equal values may be shown once. Toxic doses and inconclusive results are not listed.
System: L1210 leukemia ip in BDF1 mice, survival T/C
Test: NCI In Vivo Anticancer Drug Screen. Data for tumor model L1210 Leukemia (intraperitoneal) in B6D2F1 (BDF1) mice
Settings: endpoint: mean survival time, higher = longer survival
Summary of the method: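 Ratio derived from survival: compound-dosed mice over vehicle-dosed mice, all bearing a transplantable tumor.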

[1] = dose: 100.0 mg/kg/injection, schedule: Q01DX009 (ip), vehicle: Klucel (hydroxypropylcellulose) (HPC)
[2] = dose: 200.0 mg/kg/injection, schedule: Q01DX009 (ip), vehicle: Klucel (hydroxypropylcellulose) (HPC)
[3] = dose: 400.0 mg/kg/injection, schedule: Q01DX009 (ip), vehicle: Klucel (hydroxypropylcellulose) (HPC)

NC(CCSCc1ccc(N(CCCl)CCCl)cc1)C(=O)O (stereo unspecified)
T/C (dose: 3.0 mg/kg/injection, schedule: Q01DX Z (ip), vehicle: saline): 123 % of control | T/C (dose: 8.0 mg/kg/injection, schedule: Q01DX Z (ip), vehicle: saline): 113 % of control | T/C (dose: 12.0 mg/kg/injection, schedule: Q01DX Z (ip), vehicle: saline): 113 % of control | T/C (dose: 36.0 mg/kg/injection, schedule: Q01DX Z (ip), vehicle: saline): 114 % of control | T/C (dose: 54.0 mg/kg/injection, schedule: Q01DX Z (ip), vehicle: saline): 103 % of control and 90 % of control | T/C (dose: 81.0 mg/kg/injection, schedule: Q01DX Z (ip), vehicle: saline): 95 % of control | T/C (dose: 100.0 mg/kg/injection, schedule: Q01DX001 (ip), vehicle: carboxymethylcellulose (CMC)): 169 % of control | T/C (dose: 200.0 mg/kg/injection, schedule: Q01DX001 (ip), vehicle: carboxymethylcellulose (CMC)): 182 % of control | T/C (dose: 400.0 mg/kg/injection, schedule: Q01DX001 (ip), vehicle: carboxymethylcellulose (CMC)): 113 % of control

CCOC(=O)c1[nH]c(=O)nc(N)c1Oc1ccccc1
T/C (dose: 50.0 mg/kg/injection, schedule: Q01DX001 (ip), vehicle: Klucel (hydroxypropylcellulose) (HPC)): 98 % of control | T/C (dose: 100.0 mg/kg/injection, schedule: Q01DX001 (ip), vehicle: Klucel (hydroxypropylcellulose) (HPC)): 92 % of control | T/C (dose: 200.0 mg/kg/injection, schedule: Q01DX001 (ip), vehicle: Klucel (hydroxypropylcellulose) (HPC)): 93 % of control

O=C(Nc1ccc(Cl)cc1)Nc1ccccc1Cl
T/C (dose: 100.0 mg/kg/injection, schedule: Q01DX009 (ip), vehicle: gum acacia): 91 % of control | T/C (dose: 100.0 mg/kg/injection, schedule: Q04DX003 (ip), vehicle: gum acacia): 100 % of control | T/C (dose: 200.0 mg/kg/injection, schedule: Q01DX009 (ip), vehicle: gum acacia): 87 % of control | T/C (dose: 200.0 mg/kg/injection, schedule: Q04DX003 (ip), vehicle: gum acacia): 96 % of control | T/C (dose: 400.0 mg/kg/injection, schedule: Q01DX009 (ip), vehicle: gum acacia): 89 % of control | T/C (dose: 400.0 mg/kg/injection, schedule: Q04DX003 (ip), vehicle: gum acacia): 102 % of control

CCCCSP(=S)(SCCCC)c1ccc(Cl)cc1
T/C (dose: 100.0 mg/kg/injection, schedule: Q04DX002 (ip), vehicle: saline with Tween-80): 90 % of control | T/C (dose: 200.0 mg/kg/injection, schedule: Q04DX002 (ip), vehicle: saline with Tween-80): 93 % of control | T/C (dose: 400.0 mg/kg/injection, schedule: Q04DX002 (ip), vehicle: saline with Tween-80): 97 % of control

COc1ccc(OC(=O)Nc2cc(Cl)ccc2C)cc1
T/C [1]: 94 % of control | T/C [2]: 91 % of control | T/C [3]: 94 % of control

O=C(Nc1ccc(C2=NCCN2)cc1)c1ccc(C(=O)Nc2ccc(C3=NCCN3)cc2)nc1
T/C (dose: 1.0 mg/kg/injection, schedule: Q01DX Z (ip), vehicle: saline): 108 % of control | T/C (dose: 2.0 mg/kg/injection, schedule: Q01DX Z (ip), vehicle: saline): 119 % of control | T/C (dose: 15.0 mg/kg/injection, schedule: Q01DX Z (ip), vehicle: carboxymethylcellulose (CMC)): 228 % of control | T/C (dose: 16.0 mg/kg/injection, schedule: Q01DX Z (ip), vehicle: saline): 221 % of control | T/C (dose: 30.0 mg/kg/injection, schedule: Q01DX Z (oral), vehicle: saline): 104 % of control | T/C (dose: 60.0 mg/kg/injection, schedule: Q01DX Z (ip), vehicle: carboxymethylcellulose (CMC)): 117 % of control | T/C (dose: 60.0 mg/kg/injection, schedule: Q01DX Z (oral), vehicle: saline): 98 % of control | T/C (dose: 120.0 mg/kg/injection, schedule: Q01DX Z (oral), vehicle: saline): 106 % of control | T/C (dose: 240.0 mg/kg/injection, schedule: Q01DX Z (oral), vehicle: saline): 97 % of control | T/C (dose: 480.0 mg/kg/injection, schedule: Q01DX Z (oral), vehicle: saline): 98 % of control | T/C (dose: 960.0 mg/kg/injection, schedule: Q01DX Z (oral), vehicle: saline): 97 % of control

COc1ccc(C(C(N)=O)N2CCOCC2)cc1 (stereo unspecified)
T/C [1]: 98 % of control | T/C (dose: 100.0 mg/kg/injection, schedule: Q04DX003 (ip), vehicle: Klucel (hydroxypropylcellulose) (HPC)): 95 % of control | T/C [2]: 100 % of control | T/C (dose: 200.0 mg/kg/injection, schedule: Q04DX003 (ip), vehicle: Klucel (hydroxypropylcellulose) (HPC)): 98 % of control | T/C [3]: 97 % of control | T/C (dose: 400.0 mg/kg/injection, schedule: Q04DX003 (ip), vehicle: Klucel (hydroxypropylcellulose) (HPC)): 104 % of control
